These are literature values, as cited in article PMC3848336, “Aurora Isoform Selectivity: Design and Synthesis of Imidazo[4,5-b]pyridine Derivatives as Highly Selective Inhibitors of Aurora-A Kinase in Cells” (Journal of Medicinal Chemistry, 2013).

SMILES strings stand for the structures.

For this data set, the system named is Aurora-A/N-Myc complex. Also on record: method as in PMID 23792191. The following applies: cited from earlier work.
For `O=C(O)[C@]1(Cc2cccc(Nc3nccs3)n2)CC[C@@H](Oc2cccc(Cl)c2F)CC1` [MK-5108], the “disruption of the Aurora-A/N-Myc complex” value is “not disrupted”.
In the case of `O=C(O)c1ccc(Nc2ncc3c(n2)-c2ccc(Cl)cc2C(c2c(F)cccc2F)=NC3)cc1` [MLN8054], the “disruption of the Aurora-A/N-Myc complex” value was “disrupt the Aurora-A/N-Myc complex”.
For `COc1cc(Nc2ncc3c(n2)-c2ccc(Cl)cc2C(c2c(F)cccc2OC)=NC3)ccc1C(=O)O` [MLN8237], the “disruption of the Aurora-A/N-Myc complex” value is given as “disrupt the Aurora-A/N-Myc complex”.
